target: Beta-3 Adrenergic Receptor (Homo sapiens (Human), UniProt P13945); test: Homogeneous Time-Resolved Fluorescence (HTRF) cAMP antagonist assay, IC50 determination; type: cell-based; conditions: CHO-K1 cells stably expressing recombinant receptor, isoproterenol at EC90
How it was run: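 In this functional readout, recombinant CHO-K1 cells received compound, then isoproterenol at its EC90. After 1 h at room temperature, cAMP levels were determined by HTRF using an on-plate standard curve, and IC50 values were fitted.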

Sequence of Beta-3 Adrenergic Receptor (P13945 whole entry, species assumed): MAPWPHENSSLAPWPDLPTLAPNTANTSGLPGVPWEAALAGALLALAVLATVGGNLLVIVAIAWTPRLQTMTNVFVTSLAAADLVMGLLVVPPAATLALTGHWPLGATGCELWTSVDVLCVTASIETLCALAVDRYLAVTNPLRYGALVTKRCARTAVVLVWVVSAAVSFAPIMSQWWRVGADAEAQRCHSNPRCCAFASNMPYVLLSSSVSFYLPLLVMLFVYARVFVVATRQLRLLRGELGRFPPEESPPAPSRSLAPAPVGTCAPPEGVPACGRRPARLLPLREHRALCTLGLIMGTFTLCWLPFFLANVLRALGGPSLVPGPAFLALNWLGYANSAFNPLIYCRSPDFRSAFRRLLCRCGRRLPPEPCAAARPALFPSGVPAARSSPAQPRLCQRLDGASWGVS

Compound | IC50
CNS(=O)(=O)c1cccc(OC[C@@H](O)CN[C@H]2COC3(CCN(S(=O)(=O)c4ccc5[nH]ncc5c4OC)CC3)C2)c1 [Compound 508, 3-((S)-2-hydroxy-3-((R)-8-(4-methoxy-1H-indazol-5-ylsulfonyl)-1-oxa-8-azaspiro[4.5]decan-3-ylamino)propoxy)-N-methylbenzenesulfonamide] | 211 nM
CNS(=O)(=O)c1cccc(OC[C@@H](O)CN[C@H]2COC3(CCN(c4ncc(-c5ccccc5)cn4)CC3)C2)c1 [Compound 580, 3-((S)-2-hydroxy-3-((R)-8-(5-phenylpyrimidin-2-yl)-1-oxa-8-azaspiro[4.5]decan-3-ylamino)propoxy)-N-methylbenzenesulfonamide] | 262 nM
COCCN(C)S(=O)(=O)c1cccc(OC[C@@H](O)CNC2COC3(CCN(S(=O)(=O)c4ccc5ccccc5c4)CC3)C2)c1 (stereo partly drawn) [Compound 60, 3-((2S)-2-hydroxy-3-(8-(naphthalen-2-ylsulfonyl)-1-oxa-8-azaspiro[4.5]decan-3-ylamino)propoxy)-N-(2-methoxyethyl)-N-methylbenzenesulfonamide] | 58.8 nM
CNS(=O)(=O)c1cccc(OC[C@@H](O)CNC2COC3(CCN(S(=O)(=O)c4c(Cl)ccc5nonc45)CC3)C2)c1 (stereo partly drawn) [Compound 262, 3-((2S)-3-(8-(5-chlorobenzo[c][1,2,5]oxadiazol-4-ylsulfonyl)-1-oxa-8-azaspiro[4.5]decan-3-ylamino)-2-hydroxypropoxy)-N-methylbenzenesulfonamide] | 54.3 nM
COCCNS(=O)(=O)c1cccc(OC[C@@H](O)CN[C@H]2COC3(CCN(S(=O)(=O)c4cnc5cc[nH]c5c4)CC3)C2)c1 [Compound 530, 3-((S)-3-((R)-8-(1H-pyrrolo[3,2-b]pyridin-6-ylsulfonyl)-1-oxa-8-azaspiro[4.5]decan-3-ylamino)-2-hydroxypropoxy)-N-(2-methoxyethyl)benzenesulfonamide] | 214 nM
C[C@@H](CO)NS(=O)(=O)c1cccc(OC[C@@H](O)CNC2COC3(CCN(S(=O)(=O)c4ccc5ccccc5c4)CC3)C2)c1 (stereo partly drawn) [Compound 48, 3-((2S)-2-hydroxy-3-(8-(naphthalen-2-ylsulfonyl)-1-oxa-8-azaspiro[4.5]decan-3-ylamino)propoxy)-N—((S)-1-hydroxypropan-2-yl)benzenesulfonamide] | 133 nM
CNS(=O)(=O)c1cccc(OC[C@@H](O)CN[C@H]2COC3(CCN(S(=O)(=O)c4cc5nc[nH]c5nc4C)CC3)C2)c1 [Compound 516, 3-((S)-2-hydroxy-3-((R)-8-(5-methyl-3H-imidazo[4,5-b]pyridin-6-ylsulfonyl)-1-oxa-8-azaspiro[4.5]decan-3-ylamino)propoxy)-N-methylbenzenesulfonamide] | 166 nM
NS(=O)(=O)c1cccc(OC[C@@H](O)CNC2COC3(CCN(S(=O)(=O)c4ccc5ccccc5c4)CC3)C2)c1 (stereo partly drawn) [Compound 306, 3-((2S)-2-hydroxy-3-(8-(naphthalen-2-ylsulfonyl)-1-oxa-8-azaspiro[4.5]decan-3-ylamino)propoxy)benzenesulfonamide] | 65.4 nM
CCNS(=O)(=O)c1cccc(OC[C@@H](O)CNC2COC3(CCN(S(=O)(=O)c4ccc(Cl)c5nonc45)CC3)C2)c1 (stereo partly drawn) [Compound 235, 3-((2S)-3-(8-(7-chlorobenzo[c][1,2,5]oxadiazol-4-ylsulfonyl)-1-oxa-8-azaspiro[4.5]decan-3-ylamino)-2-hydroxypropoxy)-N-ethylbenzenesulfonamide] | 108 nM

Now those with a lower IC50, led by results:

IC50 | Compound
21.8 nM | CCN1CCOc2ccc(S(=O)(=O)N3CCC4(CC3)C[C@H](NC[C@H](O)COc3cccc(S(=O)(=O)NC)c3)CO4)cc21 [Compound 350, 3-((S)-3-((S)-8-(4-ethyl-3,4-dihydro-2H-benzo[b][1,4]oxazin-6-ylsulfonyl)-1-oxa-8-azaspiro[4.5]decan-3-ylamino)-2-hydroxypropoxy)-N-methylbenzenesulfonamide]
25.2 nM | CNS(=O)(=O)c1cccc(OC[C@@H](O)CN[C@H]2COC3(CCN(S(=O)(=O)c4cnc5c(c4)N(C)CCCO5)CC3)C2)c1 [Compound 487, 3-((S)-2-hydroxy-3-((R)-8-(1-methyl-1,2,3,4-tetrahydropyrido[2,3-b][1,4]oxazepin-8-ylsulfonyl)-1-oxa-8-azaspiro[4.5]decan-3-ylamino)propoxy)-N-methylbenzenesulfonamide]
30.8 nM | CNS(=O)(=O)c1cccc(OC[C@@H](O)CNC2COC3(CCN(S(=O)(=O)c4cccc(-c5ccc(CN)nc5)c4)CC3)C2)c1 (stereo partly drawn) [Compound 387, 3-((2S)-3-(8-(3-(6-(aminomethyl)pyridin-3-yl)phenylsulfonyl)-1-oxa-8-azaspiro[4.5]decan-3-ylamino)-2-hydroxypropoxy)-N-methylbenzenesulfonamide]
10.7 nM | CNS(=O)(=O)c1cccc(OC[C@@H](O)CN[C@H]2COC3(CCN(S(=O)(=O)c4cnn(-c5ccccc5)c4C)CC3)C2)c1 [Compound 281, 3-((S)-2-hydroxy-3-((R)-8-(5-methyl-1-phenyl-1H-pyrazol-4-ylsulfonyl)-1-oxa-8-azaspiro[4.5]decan-3-ylamino)propoxy)-N-methylbenzenesulfonamide]
40.5 nM | CNS(=O)(=O)c1cccc(OC[C@@H](O)CNC2COC3(CCN(S(=O)(=O)c4ccc(-c5ccccc5)cc4)CC3)C2)c1 (stereo partly drawn) [Compound 123, 3-((2S)-3-(8-(biphenyl-4-ylsulfonyl)-1-oxa-8-azaspiro[4.5]decan-3-ylamino)-2-hydroxypropoxy)-N-methylbenzenesulfonamide]
51.2 nM | NS(=O)(=O)c1cccc(OC[C@@H](O)CN[C@H]2COC3(CCN(S(=O)(=O)c4ccc5c(c4)CCCO5)CC3)C2)c1 [Compound 565, 3-((S)-3-((R)-8-(chroman-6-ylsulfonyl)-1-oxa-8-azaspiro[4.5]decan-3-ylamino)-2-hydroxypropoxy)benzenesulfonamide]
11.1 nM | CNS(=O)(=O)c1cccc(OC[C@@H](O)CNC2COC3(CCN(S(=O)(=O)c4cccc(-c5ccc(/C(N)=N/O)cc5)c4)CC3)C2)c1 (stereo partly drawn) [Compound 379, (Z)-N′-hydroxy-3′-(3-((S)-2-hydroxy-3-(3-(N-methylsulfamoyl)phenoxy)propylamino)-1-oxa-8-azaspiro[4.5]decan-8-ylsulfonyl)biphenyl-4-carboximidamide]
27.8 nM | CNS(=O)(=O)c1cccc(OC[C@@H](O)CNC2COC3(CCN(S(=O)(=O)c4cc(OC)ccc4F)CC3)C2)c1 (stereo partly drawn) [Compound 241, 3-((2S)-3-(8-(2-fluoro-5-methoxyphenylsulfonyl)-1-oxa-8-azaspiro[4.5]decan-3-ylamino)-2-hydroxypropoxy)-N-methylbenzenesulfonamide]
52.3 nM | CNS(=O)(=O)c1cccc(OC[C@@H](O)CN[C@H]2COC3(CCN(S(=O)(=O)c4cnc5[nH]c(=O)[nH]c5c4)CC3)C2)c1 [Compound 477, 3-((S)-2-hydroxy-3-((R)-8-(2-oxo-2,3-dihydro-1H-imidazo[4,5-b]pyridin-6-ylsulfonyl)-1-oxa-8-azaspiro[4.5]decan-3-ylamino)propoxy)-N-methylbenzenesulfonamide]
29.6 nM | CN1CCOc2ncc(S(=O)(=O)N3CCC4(CC3)C[C@@H](NC[C@H](O)COc3cccc(S(=O)(=O)NCCF)c3)CO4)cc21 [Compound 457, N-(2-fluoroethyl)-3-((S)-2-hydroxy-3-((R)-8-(1-methyl-2,3-dihydro-1H-pyrido[2,3-b][1,4]oxazin-7-ylsulfonyl)-1-oxa-8-azaspiro[4.5]decan-3-ylamino)propoxy)benzenesulfonamide]

Source: US11987588B2, “Modulators of the beta-3 adrenergic receptor useful for the treatment or prevention of heart failure and disorders related thereto” (Arena Pharmaceuticals, Inc., priority 2017, dated 2024)
